Measurements reported in patent US20040110731A1, “Photodynamic therapy for the treatment of non-melanoma skin cancer” (priority 2002, published 2004).

Assays:
[1] = tested on: non-melanoma skin cancers; details: cited from earlier work
[2] = tested on: multiple non-melanoma skin tumors; experiment: Verteporfin PDT in patients, visual assessment of treatment sites for clinical complete response (tumor free); assay type: in vivo, human; details: for Clinical Complete Response (percentage of treatment sites judged free of tumors): 14 mg/m^2 BPD-MA IV
Procedure: (§1) Visudyne^1 was diluted to 30 ml with 5% dextrose in water. This solution was then administered intravenously by a ten minute infusion to fifty-four patients having multiple non-melanoma skin tumors. The final concentration of BPD-MA administered was 14 mg per m^2 of body surface area. The body surface area was calculated by taking the square root of the […] of (height (cm)×weight (kg))÷3600. ^1 available from Movartis Opthalmics, Duluth, Ga. 30097, USA.
(§2) One to three hours after the start of drug infusion the patients either had their tumors treated with a light dose of 60 or 120 J/cm^2 (as comparative examples) or with a light dose of 180 J/cm^2 according to the invention. The light doses were all of red (688 nm) LED light with a fluence rate of 200 mW/cm^2. A total of 421 tumors were treated. 194 received 60 J/cm^2, 117 received 120 J/cm^2, and 110 received 180 J/cm^2.
Tumors were examined for clinical response after 3 months.
(§3) The efficacy of the treatment and the cosmetic outcome were assessed at 6 months and 24 months from the start of treatment. As a measure of efficacy, each treatment site was visually assessed by a physician to see if it was tumor free. The percentage of treatment sites that were judged to be free of tumors is shown in Table 1 (Clinical Complete Response). The treatment sites were also visually graded by the physician to assess the Cosmetic Outcome. Each tumor site was graded as an excellent, good, satisfactory, or less than satisfactory based on the color, profile, and texture of each treated site.

[3] = Verteporfin PDT in patients, physician visual grading of cosmetic outcome of treated sites (color, profile, texture); assay type: in vivo, human; details: 14 mg/m^2 BPD-MA IV
Procedure: as §1, §2, §3

[4] = 6 months, light dose 60 J/cm^2 (comparative), 688 nm
[5] = 6 months, light dose 120 J/cm^2 (comparative), 688 nm
[6] = 6 months, light dose 180 J/cm^2, 688 nm
[7] = 24 months, light dose 60 J/cm^2 (comparative), 688 nm
[8] = 24 months, light dose 120 J/cm^2 (comparative), 688 nm
[9] = 24 months, light dose 180 J/cm^2, 688 nm

**Q.** Which Clinical response ([1]; 60 J/cm^2) does the source give for “benzoporphyrin derivative monoacid A ring [Visudyne]” here?
**A.** relatively poor clinical response

**Q.** And the Cosmetic outcome ([1]; 180 J/cm^2)?
**A.** relatively poor cosmetic outcome

**Q.** And the “Cosmetic results with tumor clearing” value ([1]; light fluence 120 J/cm^2)?
**A.** good to excellent

**Q.** What about the “Clinical response of tumors” value ([2]; 3 months, tumors on six patients of the comparative 60 J/cm^2 group) of the same substance?
**A.** no response

**Q.** And the “Clinical Complete Response (percentage of treatment sites judged free of tumors)” value [2, 4]?
**A.** 78.3%

**Q.** And the “Clinical Complete Response (percentage of treatment sites judged free of tumors)” value [2, 5]?
**A.** 88.5%

**Q.** And the “Clinical Complete Response (percentage of treatment sites judged free of tumors)” value [2, 6]?
**A.** 98.0%

**Q.** What about the “Clinical Complete Response (percentage of treatment sites judged free of tumors)” value [2, 7] of the same substance?
**A.** 51.3%

**Q.** What about the “Clinical Complete Response (percentage of treatment sites judged free of tumors)” value [2, 8] of the same substance?
**A.** 78.6%

**Q.** What about the “Clinical Complete Response (percentage of treatment sites judged free of tumors)” value [2, 9] of the same substance?
**A.** 95.4%

**Q.** What about the “Tumor Cosmetic Outcome (percentage of treatment sites judged satisfactory or better)” value [3, 4] of the same substance?
**A.** 90.6%

**Q.** And the “Tumor Cosmetic Outcome (percentage of treatment sites judged satisfactory or better)” value [3, 5]?
**A.** 87.5%

**Q.** And the “Tumor Cosmetic Outcome (percentage of treatment sites judged satisfactory or better)” value [3, 6]?
**A.** 64.8%

**Q.** What about the “Tumor Cosmetic Outcome (percentage of treatment sites judged satisfactory or better)” value [3, 7] of the same substance?
**A.** 91.8%

**Q.** And the “Tumor Cosmetic Outcome (percentage of treatment sites judged satisfactory or better)” value [3, 8]?
**A.** 76.4%

**Q.** What about the “Tumor Cosmetic Outcome (percentage of treatment sites judged satisfactory or better)” value [3, 9] of the same substance?
**A.** 85.5%
